Measured values published in patent US3985621A, “Stopping agents for enzyme reactions of dehydrogenase systems” (priority 1974, dated 1976).

What was measured:
[1] = Stability of absorption intensity of coenzyme at 340nm after dissolution in CAPS buffer solution; assay type: physicochemical; conditions: for O.D. change at 340nm (change in absorbance per hour, 1 cm cell): coenzyme 1.1 × 10^-4 M, over 3 hours
Protocol: 1) Coenzyme dissolved in the indicated buffer solution to 1.1 ×
2) Change in absorbance per hour given when measured by the use of a cell
with optical path length of 1 cm.
3) Changes in absorbance of ±0.002A or less over 3 hours immediately
after dissolution are expressed as "not changed".

[2] = Absorption at 340nm of NAD or NADP dissolved in aqueous strong alkali; assay type: physicochemical; conditions: e.g., sodium hydroxide or potassium hydroxide, then gradually decreased
Excerpt: Such changes continuously occur over several hours and the higher an alkali concentration is, the greater change is. It is, therefore, extremely difficult to find out such a condition that an enzyme reaction is stopped without any influence upon absorption of coenzyme, when an aqueous solution of a strong alkali having no buffer action is employed.

GOT = assay: Inhibitory action of CAPS buffer solution on dehydrogenase reaction, serum GOT diagnostic kit; assay type: biochemical, human
Excerpt: (§1) For measuring serum GOT or GPT activity, the reaction can be carried out through addition of malic dehydrogenase to the reaction medium in case of GOT and LDH in case of GPT, together with the enzyme substrates such as α-ketoglutaric acid and L-aspartic acid for the former enzyme or α-ketoglutaric acid and L-alanine for the latter, and a reduced form of NAD (hereinafter referred to as NADH) in either case. Oxaloacetic acid derived from aspartic acid with GOT (in case of GPT, pyruvic acid derived from alanine, the GPT case being hereinafter referred to in the parenthesis) is converted to malic acid (lacetic acid) with malic dehydrogenase (lactic dehydrogenase) and NADH concurrently with oxidation of NADH to NAD, which results in decrease of absorbance at 340nm arising from NADH. An amount of the oxaloacetic acid (pyruvic acid) produced by GOT (GPT) is stoichiometrically equal to that of the NADH to be oxidized and a GOT (GPT) activity can be, therefore, determined from an oxidized amount of NADH which is obtained from an absorbance decrease at 340nm.
(§2) Four enzymes which are widely employed for examination in clinical diagnosis among various serum enzymes, were tested on the inhibitory actions by CAPS buffer solution. […]

GPT = assay: Inhibitory action of CAPS buffer solution on dehydrogenase reaction, serum GPT diagnostic kit; assay type: biochemical, human
Excerpt: as §1, §2

ALD = assay: Inhibitory action of CAPS buffer solution on dehydrogenase reaction, serum ALD diagnostic kit; assay type: biochemical, human
Excerpt: In measuring ALD activity, one can carry out by adding to a reaction medium fructose-1,6-diphosphate which is a substrate, togethe with triose phosphate isomerase (hereinafter referred to as TMI) and glycerol-1-phosphate dehydrogenase (hereinafter referred to as GDH). In this system, the products by ALD are converted to dioxyacetone phosphoric acid, which is then converted to glycerol-1-phosphate by the action of GDH and NADH. NADH is simultaneously oxidized to NAD. Hydrolysis of 1 mole of fructose-1,6-diphosphate with ALD results in oxidation of 2 moles of NADH.
Four enzymes which are widely employed for examination in clinical diagnosis among various serum enzymes, were tested on the inhibitory actions by CAPS buffer solution. Some of our experiments are summarized in the Table 1 wherein changes in absorbance at 340nm during the whole process of the reaction are automatically recorded and expressed in terms of inhibition degree by adding serum to a reaction mixture for proceeding the reaction and then adding thereto CAPS buffer solution with varied concentrations, pH values and amounts added.
1) Diagnostic kits available from Calbiochem U.S.A., used for measuring
GOT, GPT and CPK and diagnostic kits available from Boeringer-Manheim,
West Germany, used for measuring ALD, standard human serum
(Caltrol-Abnormal) available from Calbiochem used for serum. […]

CPK = assay: Inhibitory action of CAPS buffer solution on dehydrogenase reaction, serum CPK diagnostic kit; assay type: biochemical, human
Protocol: CPK in serum is increased along with injury of skeletal muscle or heart muscle. For determination of CPK activity, creatine phosphoric acid and adenosine-5'-diphosphate (hereinafter referred to as ADP) are employed as substrates and further hexokinase (hereinafter referred to as HK), glucose, glucose-6-phosphate dehydrogenase (hereinafter referred to as G6PDH) and NADP are added to the reaction medium. By the action of CPK, ADP is converted to adenosine-5'-triphosphate (hereinafter referred to as ATP), while glucose in the reaction medium is converted to glucose-6-phosphate by the action of the ATP and HK. Thereafter, the glucose-6-phosphate is converted to 6-phosphogluconic acid by the action of G6PDH and NADP and NADP is converted to a reduced form of NADP (hereinafter referred to as NADPH), along with the conversion, which results in increased absorbance at 340nm. The ATP amount produced by CPK is stoichiometrically equal to that of NADP to be reduced.
as §2

[3] = Influence of alkaline buffer solutions on absorption intensity of coenzyme at 340nm; assay type: physicochemical; conditions: for Absorption of NAD at 340nm: added to an enzyme reaction mixture containing EDTA
Excerpt: Such increasing action on absorption of NAD may continuously vary with the lapse of time and it is, therefore, difficult to correct influence caused therefrom.

dehydrogenase reaction = assay: Aqueous alkali solution of p-chloromercurybenzoate as stopping agent for dehydrogenase reaction; assay type: biochemical; conditions: reaction mixture of commercially available diagnostic kits
Excerpt: It is also reported in the art that an aqueous alkali solution of p-chloromercurybenzoate is applicable as a stopping agent for dehydrogenase reaction (E. Raabo, Scandinavian Journal of Clinical & Laboratory Investigation, 17, (1965), 265). […] Then, the prior solution seems to be of no practical use.

[4] = CAPS buffer solution 0.25M,pH12.5

For `NC(=O)c1ccc[n+]([C@@H]2O[C@H](COP(=O)([O-])OP(=O)(O)OC[C@H]3O[C@@H](n4cnc5c(N)ncnc54)[C@H](O)[C@@H]3O)[C@@H](O)[C@H]2O)c1` [NAD, nicotinamide-adenine dinucleotide], the “O.D. change at 340nm (change in absorbance per hour, 1 cm cell)” value ([1]; CAPS buffer solution 0.25M,pH12.0) was no more than 0.005 A/hr/cm, the “O.D. change at 340nm (change in absorbance per hour, 1 cm cell)” value [1, 4] was no more than 0.010 A/hr/cm and the “O.D. change at 340nm (change in absorbance per hour, 1 cm cell)” value ([1]; CAPS buffer solution 0.33M,pH11.5) was no more than 0.005 A/hr/cm. The “O.D. change at 340nm (change in absorbance per hour, 1 cm cell)” value ([1]; CAPS buffer solution 0.5M,pH11.5) was no more than 0.010 A/hr/cm, the “Stability of coenzyme in CAPS buffer solution” value ([1]; concentration 0.33M or more or pH 12 or higher) was “somewhat reduced” and the “Time to peak of absorption intensity at 340nm” value [2] was 10 to 20 min.
In the case of `NC(=O)c1ccc[n+]([C@@H]2O[C@H](COP(=O)([O-])OP(=O)(O)OC[C@H]3O[C@@H](n4cnc5c(N)ncnc54)[C@H](OP(=O)(O)O)[C@@H]3O)[C@@H](O)[C@H]2O)c1` [NADP, nicotinamide adenine dinucleotide phosphate], the “O.D. change at 340nm (change in absorbance per hour, 1 cm cell)” value [1, 4] is reported as no more than 0.005 A/hr/cm, the “Stability of coenzyme in CAPS buffer solution” value ([1]; pH 12.5 or higher) is reported as “also reduced” and the “Time to peak of absorption intensity at 340nm” value [2] is reported as 10 to 20 min.
With `[Na+].[OH-]` [NaOH soln., sodium hydroxide] the “Complete inhibition concentration with aqueous NaOH soln. (Final concentration), GOT” value (GOT) was greater than 0.15 N, the “Complete inhibition concentration with aqueous NaOH soln. (Final concentration), GPT” value (GPT) was greater than 0.15 N and the “Complete inhibition concentration with aqueous NaOH soln. (Final concentration), ALD” value (ALD) was greater than 0.1 N. The “Complete inhibition concentration with aqueous NaOH soln. (Final concentration), CPK” value (CPK) was greater than 0.1 N.
In the case of `N=C(N)NCCC[C@H](N)C(=O)O` [arginine buffer solution, arginine], the “Absorption of NAD at 340nm” value [3] is reported as “increase in absorption of NAD at 340nm”.
With `NCC(=O)O` [glycine buffer solution, glycine] the “Absorption of NAD at 340nm” value [3] was “increase in absorption of NAD at 340nm”.
With `N=C(N)N` [guanidine buffer solution, guanidine] the “Absorption of NAD” value ([3]; at the concentration and pH value to inhibit an action of an enzyme) was “may increase absorption of NAD”.
For `O=C(O)c1cc[c]([Hg][Cl])cc1` [p-chloromercurybenzoate], the “Inhibition of dehydrogenase reaction” value (dehydrogenase reaction) was “only partial inhibition”.
